Laboratory results from patent US20110112135A1, “Imidazo [1,2-A] Pyridine Compounds” (priority 2007, published 2011).

Legend:
[1] = molecular target: T1, human LXRβ (Homo sapiens, UniProt P55055); assay: Ligand-binding test procedure for human LXRβ (3H T0901317 tracer, flash plates); settings: biotinylated hLXRβ from E. coli extract; tracer 3H T0901317
T1 construct: biotin (biotinylated); made in house; host or cells: E. coli (crude extract)
T1 sequence (P55055 1-460): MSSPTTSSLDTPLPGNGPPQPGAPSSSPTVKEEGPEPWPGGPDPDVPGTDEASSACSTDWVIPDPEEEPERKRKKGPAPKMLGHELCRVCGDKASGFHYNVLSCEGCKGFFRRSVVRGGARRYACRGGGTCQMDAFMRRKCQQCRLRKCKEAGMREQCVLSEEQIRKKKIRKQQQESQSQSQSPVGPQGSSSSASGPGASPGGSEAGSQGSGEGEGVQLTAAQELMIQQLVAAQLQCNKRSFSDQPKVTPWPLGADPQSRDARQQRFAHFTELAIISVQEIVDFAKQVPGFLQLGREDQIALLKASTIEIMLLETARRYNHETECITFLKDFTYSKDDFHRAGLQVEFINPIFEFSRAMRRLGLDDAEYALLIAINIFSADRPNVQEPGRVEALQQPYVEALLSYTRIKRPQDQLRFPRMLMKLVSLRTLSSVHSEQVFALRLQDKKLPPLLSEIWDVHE
Summary of the method: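 Biotinylated hLXRβ from E. coli extract was captured on streptavidin flash plates (Bmax ~4000 cpm) at 4 °C overnight. Test ligand dilutions were mixed with 5 nM [3H]T0901317 tracer solution and incubated on the plates overnight at 4 °C; bound radioactivity was counted after washing.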

[2] = molecular target: T2, human LXRα (Homo sapiens, UniProt Q13133); assay: Ligand-binding test procedure for human LXRα (3H T0901317 tracer, flash plates); settings: biotinylated hLXRα from E. coli extract; tracer 3H T0901317
T2 construct: biotin (biotinylated); made in house; host or cells: E. coli (crude extract)
T2 sequence (Q13133 1-447): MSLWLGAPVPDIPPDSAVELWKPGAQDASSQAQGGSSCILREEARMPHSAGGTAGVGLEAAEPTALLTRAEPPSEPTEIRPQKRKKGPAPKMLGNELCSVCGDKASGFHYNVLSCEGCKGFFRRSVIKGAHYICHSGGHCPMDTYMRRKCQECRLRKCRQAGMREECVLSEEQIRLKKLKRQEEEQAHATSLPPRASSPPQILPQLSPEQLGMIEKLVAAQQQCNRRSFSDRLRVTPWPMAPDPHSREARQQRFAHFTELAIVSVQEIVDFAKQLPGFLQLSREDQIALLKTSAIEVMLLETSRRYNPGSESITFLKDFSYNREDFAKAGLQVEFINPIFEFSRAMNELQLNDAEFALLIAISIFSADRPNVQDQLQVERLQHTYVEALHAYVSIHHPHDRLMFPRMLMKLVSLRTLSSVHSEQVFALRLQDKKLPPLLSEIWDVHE
Summary of the method: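 Biotinylated hLXRα from E. coli extract (50 mM Tris) captured on streptavidin flash plates overnight at 4 °C. Compound dilution series mixed with 5 nM [3H]T0901317 (concentration before mixing), incubated overnight at 4 °C; wells aspirated, washed and remaining radioactivity counted.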

[3] = system: ABCA1 gene; assay: Quantitative analysis of ABCA1 gene regulation in THP-1 cells (real-time PCR); format: cell-based, human; settings: Gene regulation by LXR (Human), differentiated THP-1 cells, 18 hrs; for EC50: ABCA1 mRNA, read-out: EC50 ABCA1; for Emax: LXR agonist reference at 1.0 uM as positive control, read-out: Agonism ABCA1
Description: III. Quantitative Analysis of ABCA1 Gene Regulation in THP-1 Cells. The compounds of formula (I) effect on the regulation of the ABCA1 gene was evaluated using the following procedure. Materials and Methods Cell culture: The THP-1 monocytic cell line (ATCC #TIB-202) was obtained from American Type Culture Collection (Manassas, Va.) and cultured in RPMI 1640 medium (Gibco, Carlsbad, Calif.) containing 10% FBS, 2 mM L-glutamine, and 55 uM beta-Mercaptoethanol (BME). […] Louis, Mo.) for three days to induce differentiation into adherent macrophages. Differentiated THP-1 cells were treated with test compounds or ligands dissolved in DMSO (Sigma, D-8779) in culture medium lacking phorbal ester. […] Dose response effects were measured in duplicate, in the range of 0.001 to 30 micromolar concentrations and treated cells were incubated for an additional 18 hrs prior to RNA isolation. Unstimulated cells treated with vehicle were included as negative controls on each plate. […] L., J. Med. Chem. (2000), 45:1963-1966.). Results of antagonist analysis are expressed as % antagonism and IC50 (in μM). RNA isolation and quantitation: Total cellular RNA was isolated from treated cells cultured in 96-well plates using PrepStation 6100 (Applied Biosystems, Foster City, Calif.), according to the manufacturer's recommendations. RNA was resuspended in ribonuclease-free water and stored at -70° C. prior to analysis. RNA concentrations were quantitated with RiboGreen test procedure, #R-11490 (Molecular Probes, Eugene, Oreg.). Gene expression analysis: Gene-specific mRNA quantitation was performed by real-time PCR with the Perkin Elmer Corp. chemistry on an ABI Prism 7700 Sequence detection system (Applied Biosystems, Foster City, Calif.) according to the manufacturer's instructions. Samples (50-100 ng) of total RNA were assayed in duplicate or triplicate in 50 ul reactions using one-step RT-PCR and the standard curve method to estimate specific mRNA concentrations. Sequences of gene-specific primer and probe sets were designed with Primer Express Software (Applied Biosystems, Foster City, Calif.). […] Relative levels of ABCA1 mRNA are normalized using GAPDH mRNA or 18S rRNA probe/primer sets purchased commercially (Applied Biosystems, Foster City, Calif.). Statistics: Mean, standard deviation and statistical significance of duplicate evaluations of RNA samples were assessed using ANOVA, one-way analysis of variance using SAS analysis. Reagents: -GAPDH Probe and Primers-Taqman GAPDH Control Reagents 402869 or 4310884E 18S Ribosomal RNA-Taqman 18S Control Reagents 4308329 […] Qiagen Quantitect probe RT-PCR 204443.

| IC50 [1] | IC50 [2] | EC50 [3] | SMILES | Emax [3] |
| --- | --- | --- | --- | --- |
| > 1000 nM | > 1000 nM | 2780 nM | CC(C)c1nc2c(C(F)(F)F)cccn2c1-c1ccc(-c2ccc(S(=O)(=O)C(C)C)cc2)cc1 [Example 91, 2-isopropyl-3-(4′-(isopropylsulfonyl)biphenyl-4-yl)-8-(trifluoromethyl)imidazo[1,2-a]pyridine] | 33% |
| 179 nM | > 1000 nM | 620 nM | CC(C)c1nc2c(C(F)(F)F)cccn2c1-c1ccc(Oc2cccc(S(C)(=O)=O)c2)cc1 [Example 119, 2-(1-methylethyl)-3-{4-[3-(methylsulfonyl)phenoxy]phenyl}-8-(trifluoromethyl)imidazo[1,2-a]pyridine] | 59% |
| 117 nM | > 1000 nM | 590 nM | CCS(=O)(=O)c1cccc(Oc2ccc(-c3c(C(C)C)nc4c(C(F)(F)F)cccn34)cc2)c1 [Example 120, 3-{4-[3-(ethylsulfonyl)phenoxy]phenyl}-2-(1-methylethyl)-8-(trifluoromethyl)imidazo[1,2-a]pyridine] | 53% |
| 14 nM | 290 nM | 25 nM | COc1ccccc1-c1nc2c(C(F)(F)F)cccn2c1-c1ccc(Oc2cccc(S(C)(=O)=O)c2)cc1 [Example 126, 2-(2-methoxyphenyl)-3-{4-[3-(methylsulfonyl)phenoxy]phenyl}-8-(trifluoromethyl)imidazo[1,2-a]pyridine] | 30% |
| 30 nM | 370 nM | 135 nM | CS(=O)(=O)c1cccc(Oc2cccc(-c3c(Cn4ccnc4)nc4c(C(F)(F)F)cccn34)c2)c1 [Example 129, 2-(1H-imidazol-1-ylmethyl)-3-{3-[3-(methylsulfonyl)phenoxy]phenyl}-8-(trifluoromethyl)imidazo[1,2-a]pyridine] | 103% |

| SMILES | IC50 [1] | IC50 [2] | EC50 [3] | Emax [3] |
| --- | --- | --- | --- | --- |
| CCCCOCc1nc2c(C(F)(F)F)cccn2c1-c1ccc(Oc2cccc(S(C)(=O)=O)c2)cc1 [Example 128, 2-(butoxymethyl)-3-{4-[3-(methylsulfonyl)phenoxy]phenyl}-8-(trifluoromethyl)imidazo[1,2-a]pyridine] | 28 nM | 430 nM | 40 nM | 76% |
